Measurements published in PubChem BioAssay (NCI).
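The concentration for 50% growth inhibition is given as GI50. TGI denotes the concentration required for complete inhibition of growth.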

Legend:
Experiment in all cases: NCI-60 cell line screen, 384-well format
NCI-H23 lung = system: NCI-H23 lung
OVCAR-3 ovarian = system: OVCAR-3 ovarian
OVCAR-4 ovarian = system: OVCAR-4 ovarian
HOP-92 NSCLC = system: HOP-92 NSCLC
PC-3 prostate = system: PC-3 prostate
OVCAR-5 ovarian = system: OVCAR-5 ovarian
HCC-2998 colon = system: HCC-2998 colon
MDA-MB-231 breast = system: MDA-MB-231 breast
SNB-19 CNS = system: SNB-19 CNS
MDA-MB-468 breast = system: MDA-MB-468 breast
A549 NSCLC = system: A549 NSCLC
NCI-H322M lung = system: NCI-H322M lung
HT29 colon = system: HT29 colon
RXF 393 renal = system: RXF 393 renal
KM12 colon = system: KM12 colon
MCF7 breast = system: MCF7 breast
U251 glioblastoma = system: U251 glioblastoma
SN12C renal = system: SN12C renal
SR leukemia = system: SR leukemia
NCI/ADR-RES ovarian = system: NCI/ADR-RES ovarian
SF-268 CNS = system: SF-268 CNS
T-47D breast = system: T-47D breast
MOLT-4 leukemia = system: MOLT-4 leukemia
UACC-257 melanoma = system: UACC-257 melanoma
UACC-62 melanoma = system: UACC-62 melanoma
OVCAR-8 ovarian = system: OVCAR-8 ovarian
HCT-116 colon = system: HCT-116 colon
CAKI-1 renal = system: CAKI-1 renal
NCI-H522 lung = system: NCI-H522 lung
HL-60(TB) leukemia = system: HL-60(TB) leukemia
COLO 205 colon = system: COLO 205 colon
HS 578T breast = system: HS 578T breast
EKVX NSCLC = system: EKVX NSCLC
A498 renal = system: A498 renal
SK-OV-3 ovarian = system: SK-OV-3 ovarian
NCI-H460 NSCLC = system: NCI-H460 NSCLC
SK-MEL-28 melanoma = system: SK-MEL-28 melanoma
LOX IMVI melanoma = system: LOX IMVI melanoma
DU-145 prostate = system: DU-145 prostate
RPMI-8226 leukemia = system: RPMI-8226 leukemia
HCT-15 colon = system: HCT-15 colon
BT-549 breast = system: BT-549 breast
IGROV1 ovarian = system: IGROV1 ovarian
SNB-75 CNS = system: SNB-75 CNS
SK-MEL-5 melanoma = system: SK-MEL-5 melanoma
NCI-H226 lung = system: NCI-H226 lung

SMILES: Cn1cc(-c2cnn3c(N)c(Br)c(C4CCCNC4)nc23)cn1 (stereo unspecified)
- GI50 (NCI-H23 lung): 0.027 µM
- TGI (NCI-H23 lung): 21.2 µM
- GI50 (OVCAR-3 ovarian): 0.188 µM
- TGI (OVCAR-3 ovarian): 20.3 µM
- GI50 (OVCAR-4 ovarian): < 0.01 µM
- TGI (OVCAR-4 ovarian): 26.6 µM
- GI50 (HOP-92 NSCLC): 0.0263 µM
- TGI (HOP-92 NSCLC): 33.3 µM
- GI50 (PC-3 prostate): 1.8 µM
- TGI (PC-3 prostate): 14.6 µM
- GI50 (OVCAR-5 ovarian): 0.0964 µM
- TGI (OVCAR-5 ovarian): 16.5 µM
- GI50 (HCC-2998 colon): < 0.01 µM
- TGI (HCC-2998 colon): 0.0624 µM
- GI50 (MDA-MB-231 breast): 2.9 µM
- TGI (MDA-MB-231 breast): 42.2 µM
- GI50 (SNB-19 CNS): 0.983 µM
- TGI (SNB-19 CNS): 37.1 µM
- GI50 (MDA-MB-468 breast): 3.75 µM
- TGI (MDA-MB-468 breast): 24.4 µM
- GI50 (A549 NSCLC): 7.68 µM
- TGI (A549 NSCLC): 28.6 µM
- GI50 (NCI-H322M lung): 0.293 µM
- TGI (NCI-H322M lung): 22.1 µM
- GI50 (HT29 colon): 0.989 µM
- TGI (HT29 colon): 12.9 µM
- GI50 (RXF 393 renal): 0.0332 µM
- TGI (RXF 393 renal): 25 µM
- GI50 (KM12 colon): 0.117 µM
- TGI (KM12 colon): 15.8 µM
- GI50 (MCF7 breast): 1.36 µM
- TGI (MCF7 breast): 17.9 µM
- GI50 (U251 glioblastoma): 5.36 µM
- TGI (U251 glioblastoma): 20.3 µM
- GI50 (SN12C renal): 0.0371 µM
- TGI (SN12C renal): 3.72 µM
- GI50 (SR leukemia): < 0.01 µM
- GI50 (NCI/ADR-RES ovarian): 2.04 µM
- TGI (NCI/ADR-RES ovarian): > 100 µM
- GI50 (SF-268 CNS): 5.36 µM
- TGI (SF-268 CNS): 27.2 µM
- GI50 (T-47D breast): 14.6 µM
- TGI (T-47D breast): 37.1 µM
- GI50 (MOLT-4 leukemia): 0.0234 µM
- TGI (MOLT-4 leukemia): 0.053 µM
- GI50 (UACC-257 melanoma): 2.29 µM
- TGI (UACC-257 melanoma): 19.5 µM
- GI50 (UACC-62 melanoma): 0.88 µM
- TGI (UACC-62 melanoma): 15.3 µM
- GI50 (OVCAR-8 ovarian): 0.0382 µM
- TGI (OVCAR-8 ovarian): 21.2 µM
- GI50 (HCT-116 colon): 2.01 µM
- TGI (HCT-116 colon): 15.6 µM
- GI50 (CAKI-1 renal): 1.46 µM
- TGI (CAKI-1 renal): 15.2 µM
- GI50 (NCI-H522 lung): 2.56 µM
- TGI (NCI-H522 lung): 11.4 µM
- GI50 (HL-60(TB) leukemia): 0.032 µM
- TGI (HL-60(TB) leukemia): 0.129 µM
- GI50 (COLO 205 colon): 0.922 µM
- TGI (COLO 205 colon): 5.81 µM
- GI50 (HS 578T breast): 0.0302 µM
- TGI (HS 578T breast): 18.9 µM
- GI50 (EKVX NSCLC): 3.54 µM
- TGI (EKVX NSCLC): 23.8 µM
- GI50 (A498 renal): < 0.01 µM
- TGI (A498 renal): 0.0226 µM
- GI50 (SK-OV-3 ovarian): 0.0621 µM
- TGI (SK-OV-3 ovarian): 23.2 µM
- GI50 (NCI-H460 NSCLC): 0.93 µM
- TGI (NCI-H460 NSCLC): 10.9 µM
- GI50 (SK-MEL-28 melanoma): 11.1 µM
- TGI (SK-MEL-28 melanoma): 26.5 µM
- GI50 (LOX IMVI melanoma): 1.33 µM
- TGI (LOX IMVI melanoma): 4.22 µM
- GI50 (DU-145 prostate): 0.227 µM
- TGI (DU-145 prostate): 15.6 µM
- GI50 (RPMI-8226 leukemia): 0.0358 µM
- TGI (RPMI-8226 leukemia): 0.643 µM
- GI50 (HCT-15 colon): 2.08 µM
- TGI (HCT-15 colon): 19.4 µM
- GI50 (BT-549 breast): 0.033 µM
- TGI (BT-549 breast): 5.25 µM
- GI50 (IGROV1 ovarian): 0.0563 µM
- TGI (IGROV1 ovarian): 13.2 µM
- GI50 (SNB-75 CNS): 4.99 µM
- TGI (SNB-75 CNS): 25.3 µM
- GI50 (SK-MEL-5 melanoma): 0.0346 µM
- TGI (SK-MEL-5 melanoma): 1.2 µM
- GI50 (NCI-H226 lung): 3.29 µM
- TGI (NCI-H226 lung): 18.6 µM
